Reference: patent US20260035367A1 (Celgene Corporation, priority 2021, published 2026)
Structures can show the parent of a compound that is named as a salt. Where two headings read alike, the source gives them in different places.

Tests used:
[1] = system: IL-2 secretion by human effector memory T cells (TEM); assay: Effector memory T cells IL-2 release assay (CD3/CD28 stimulation, HTRF IL-2 detection); assay type: cell-based; conditions: Homo sapiens, T-cell, 24 h
Summary of the method: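 IL-2 released into the supernatant was quantified by HTRF after 24 h at 37 °C in 5% CO2. The cells were stimulated primary human TEM from donor buffy coats, treated with a 10-point semi-log compound series (0.1% DMSO final, triplicates).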

[2] = target: T1, Recombinant human PKC-delta (His-tagged 345-676) (Homo sapiens, UniProt Q05655); assay: PKC-delta inhibition assay (HTRF KinEASE kit); assay type: biochemical; conditions: ratio, PKC-theta vs PKC-delta HTRF; for PKC-theta/PKC-delta selectivity (binned): binned A to G
T1 construct: PKC-delta (His-tagged 345-676); His
T1 sequence (Q05655 345-676): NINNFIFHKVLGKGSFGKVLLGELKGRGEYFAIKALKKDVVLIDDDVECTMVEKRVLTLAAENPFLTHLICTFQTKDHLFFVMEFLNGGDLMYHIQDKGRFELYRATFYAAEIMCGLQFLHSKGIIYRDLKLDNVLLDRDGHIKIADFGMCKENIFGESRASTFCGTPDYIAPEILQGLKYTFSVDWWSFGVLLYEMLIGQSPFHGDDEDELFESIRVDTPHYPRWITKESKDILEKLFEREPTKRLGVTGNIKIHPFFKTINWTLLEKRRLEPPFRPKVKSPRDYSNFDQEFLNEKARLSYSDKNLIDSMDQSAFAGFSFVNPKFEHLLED

[3] = target: T2, Recombinant human PKC-theta (His-tagged 362-706) (Homo sapiens, UniProt Q04759); assay: PKC-theta inhibition assay (HTRF KinEASE kit); assay type: biochemical; conditions: STK substrate 525 nM
T2 construct: Recombinant human PKC-theta (His-tagged 362-706); His
T2 sequence (Q04759 362-706): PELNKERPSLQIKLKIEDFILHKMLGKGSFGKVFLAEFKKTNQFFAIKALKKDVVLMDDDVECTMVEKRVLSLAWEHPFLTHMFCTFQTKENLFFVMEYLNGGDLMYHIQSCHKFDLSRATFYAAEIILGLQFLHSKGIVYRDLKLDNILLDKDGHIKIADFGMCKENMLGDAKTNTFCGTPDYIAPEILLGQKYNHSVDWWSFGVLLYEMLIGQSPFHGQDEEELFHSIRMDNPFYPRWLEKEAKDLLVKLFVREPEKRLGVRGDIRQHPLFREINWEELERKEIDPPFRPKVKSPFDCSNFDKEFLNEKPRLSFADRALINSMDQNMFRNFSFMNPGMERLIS
Summary of the method: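 IC50 values were from 4-parameter logistic fits of percent inhibition, based on acceptor/donor HTRF ratios over 10 semi-log compound doses. Kinase reactions, started with substrate plus ATP, ran 30 min at 25 °C in buffer supplemented with 10 mM MgCl2, 1 mM DTT and 0.1% Tween 20; detection lasted 2 h.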

[4] = binned A to G, read-out: PKC-theta IL2 pIC50 (binned) (converted)
[5] = read-out: PKC-theta IL2 pIC50 (converted)
[6] = ATP 6.5 μM, binned A to H, read-out: PKC-theta HTRF pIC50 (binned) (converted)
[7] = ATP 6.5 μM, read-out: PKC-theta HTRF pIC50 (converted)

SMILES | IC50 [1, 4] [nM] | IC50 [1, 5] [nM] | PKC-theta/PKC-delta selectivity (binned) [2] | IC50 [3, 6] [nM] | IC50 [3, 7] [nM] | PKC-theta/PKC-delta selectivity [2] | IC50 ([3]; PKC-theta HTRF pIC50 (binned), ATP 6.5 μM, binned A to H) [nM] | IC50 ([3]; PKC-theta HTRF pIC50, ATP 6.5 μM) [nM]
O=c1[nH]c2nccc(-c3cccc(CN4CCNCC4)c3)c2[nH]1 [Example 20] | > 1000 | 10000 | G (a ratio of 0 to 1) | > 1000 | 3980 |  |  | 
CCC1C(=O)Nc2nccc(-c3cccc(N4CCNCC4)c3)c21 (centres unmarked) [Example 21] | 316 to 1000 | 1000 | F (a ratio of between 1 and 5) | 316 to 1000 | 316 | 1 |  | 
CC1C(=O)Nc2nccc(-c3cccc(CN(C)C)c3)c21 (centres unmarked) [Example 22] | > 1000 | 1580 | F (a ratio of between 1 and 5) | 316 to 1000 | 501 | 1 |  | 
CC1(C)C(=O)Nc2nccc(-c3cccc(N4CCNCC4)c3)c21 [Example 23] | > 1000 | 1580 | F (a ratio of between 1 and 5) | 100 to 316 | 100 | 2 |  | 
CC1C(=O)Nc2ncnc(-c3cccc(N4CCNCC4)c3)c21 (centres unmarked) [Example 24] | > 1000 | 2000 | F (a ratio of between 1 and 5) | 316 to 1000 | 1000 | 1 |  | 
CC1C(=O)Nc2nccc(-c3cc(N4CCNCC4)cc(C(F)(F)F)c3)c21 (centres unmarked) [Example 25] | 316 to 1000 | 501 | E (a ratio of between 5 and 10) | 31.6 to 100 | 50.1 | 7 |  | 
CC1(C)C(=O)Nc2nccc(-c3cccc(N(CC4COC4)C4CCCNC4)c3)c21 (centres unmarked) [Example 26] | > 1000 | 2510 | F (a ratio of between 1 and 5) | 100 to 316 | 158 | 2 |  | 
CC1C(=O)Nc2nccc(-c3cccc(C(=O)N4CCNCC4)c3)c21 (centres unmarked) [Example 27] | > 1000 | 10000 | F (a ratio of between 1 and 5) | 316 to 1000 | 1000 | 1 |  | 
CC1(C)C(=O)Nc2nccc(-c3ccnc(N4CCNCC4)c3)c21 [Example 28] | > 1000 | 10000 | G (a ratio of 0 to 1) | > 1000 | 1260 | 1 |  | 
CC1(C)C(=O)Nc2nccc(-c3cc(F)cc(N4CCNCC4)c3)c21 [Example 29] | 316 to 1000 | 501 | F (a ratio of between 1 and 5) | 31.6 to 100 | 31.6 | 1 |  | 
C[C@H]1CNCCN1c1cc(F)cc(-c2ccnc3c2C(C)(C)C(=O)N3)c1 [Example 30] | 316 to 1000 | 794 | F (a ratio of between 1 and 5) | 31.6 to 100 | 31.6 | 2 |  | 
C[C@H]1CNCCN1c1cc(-c2ccnc3c2C(C)(C)C(=O)N3)ccn1 [Example 31] | > 1000 | 6310 | F (a ratio of between 1 and 5) | 316 to 1000 | 501 | 1 |  | 
CC1(C)C(=O)Nc2nccc(-c3cc(F)cc(CN4CCNCC4)c3)c21 [Example 32, 4-[3-fluoro-5-(piperazin-1-ylmethyl)phenyl]-3,3-dimethyl-1H-pyrrolo[2,3-b]pyridin-2-one; dihydrochloride] | > 1000 | 3980 | F (a ratio of between 1 and 5) |  |  | 3 | 100 to 316 | 200
CCC1(C)C(=O)Nc2nccc(-c3cc(F)cc(N4CCNCC4)c3)c21 (centres unmarked) [Example 33] | 316 to 1000 | 794 | F (a ratio of between 1 and 5) | 31.6 to 100 | 50.1 | 2 |  | 
O=C1Nc2nccc(-c3cc(F)cc(N4CCNCC4)c3)c2C12CC2 [Example 34] | > 1000 | 3980 | F (a ratio of between 1 and 5) | > 1000 | 1000 | 2 |  | 
O=C1Nc2nccc(-c3cc(F)cc(N4CCNCC4)c3)c2C12CCC2 [Example 35] | 316 to 1000 | 398 | F (a ratio of between 1 and 5) | 31.6 to 100 | 39.8 | 3 |  | 
O=C1Nc2nccc(-c3cc(F)cc(N4CCNCC4)c3)c2C12CCCC2 [Example 36] | 100 to 316 | 251 | F (a ratio of between 1 and 5) | 10 to 31.6 | 20 | 1 |  | 
CC1(C)C(=O)Nc2nccc(-c3cc(N4CCNCC4)cc(C(F)(F)F)c3)c21 [Example 37] | > 1000 | 1260 | F (a ratio of between 1 and 5) | 31.6 to 100 | 100 | 5 |  | 
CC1(C)C(=O)Nc2nccc(-c3cccc(N4CCNCC4)n3)c21 [Example 38] | 100 to 316 | 158 | F (a ratio of between 1 and 5) | 3.16 to 10 | 10 | 4 |  | 
C[C@H]1CNCCN1c1cccc(-c2ccnc3c2C(C)(C)C(=O)N3)c1 [Example 39] | > 1000 | 2510 | F (a ratio of between 1 and 5) | 100 to 316 | 200 | 1 |  | 
CC1(C)C(=O)Nc2nccc(-c3cc(Cl)cc(N4CCNCC4)c3)c21 [Example 40] | 316 to 1000 | 398 | F (a ratio of between 1 and 5) | 31.6 to 100 | 31.6 | 4 |  | 
CC1(C)C(=O)Nc2nccc(-c3cccc(N(CC4COC4)C4CCNCC4)c3)c21 [Example 41] | > 1000 | 2000 | F (a ratio of between 1 and 5) | 31.6 to 100 | 79.4 | 3 |  | 
CC1(C)C(=O)Nc2nccc(-c3cccc(S(=O)(=O)N4CCNCC4)c3)c21 [Example 42] | > 1000 | 10000 | F (a ratio of between 1 and 5) | > 1000 | 2000 | 1 |  | 
CC1(C)C(=O)Nc2nccc(-c3cccc(C4(CO)CCNC4)c3)c21 (centres unmarked) [Example 43] | 316 to 1000 | 631 | F (a ratio of between 1 and 5) | 3.16 to 10 | 7.94 | 3 |  | 
